Legend:
[1] = Hepatocyte stability, dog; type: in vitro ADME; details: hepatocytes, read-out: Hepatocyte Stability (t1/2)
[2] = target: T1, full-length human Mineralocorticoid Receptor (MR) (Homo sapiens, UniProt P08235); assay: human MR NH Pro assay (PathHunter Protein:Protein interaction assay), MR antagonism; type: cell-based; details: IP = inflection point of the dose-response curve; CHO-K1 cells overexpressing human MR, aldosterone about 0.3 nM to about 1 nM, 6 hours at 37° C.
T1 construct: host or cells: PathHunter CHO-K1 MR cells
T1 sequence (P08235 1-984): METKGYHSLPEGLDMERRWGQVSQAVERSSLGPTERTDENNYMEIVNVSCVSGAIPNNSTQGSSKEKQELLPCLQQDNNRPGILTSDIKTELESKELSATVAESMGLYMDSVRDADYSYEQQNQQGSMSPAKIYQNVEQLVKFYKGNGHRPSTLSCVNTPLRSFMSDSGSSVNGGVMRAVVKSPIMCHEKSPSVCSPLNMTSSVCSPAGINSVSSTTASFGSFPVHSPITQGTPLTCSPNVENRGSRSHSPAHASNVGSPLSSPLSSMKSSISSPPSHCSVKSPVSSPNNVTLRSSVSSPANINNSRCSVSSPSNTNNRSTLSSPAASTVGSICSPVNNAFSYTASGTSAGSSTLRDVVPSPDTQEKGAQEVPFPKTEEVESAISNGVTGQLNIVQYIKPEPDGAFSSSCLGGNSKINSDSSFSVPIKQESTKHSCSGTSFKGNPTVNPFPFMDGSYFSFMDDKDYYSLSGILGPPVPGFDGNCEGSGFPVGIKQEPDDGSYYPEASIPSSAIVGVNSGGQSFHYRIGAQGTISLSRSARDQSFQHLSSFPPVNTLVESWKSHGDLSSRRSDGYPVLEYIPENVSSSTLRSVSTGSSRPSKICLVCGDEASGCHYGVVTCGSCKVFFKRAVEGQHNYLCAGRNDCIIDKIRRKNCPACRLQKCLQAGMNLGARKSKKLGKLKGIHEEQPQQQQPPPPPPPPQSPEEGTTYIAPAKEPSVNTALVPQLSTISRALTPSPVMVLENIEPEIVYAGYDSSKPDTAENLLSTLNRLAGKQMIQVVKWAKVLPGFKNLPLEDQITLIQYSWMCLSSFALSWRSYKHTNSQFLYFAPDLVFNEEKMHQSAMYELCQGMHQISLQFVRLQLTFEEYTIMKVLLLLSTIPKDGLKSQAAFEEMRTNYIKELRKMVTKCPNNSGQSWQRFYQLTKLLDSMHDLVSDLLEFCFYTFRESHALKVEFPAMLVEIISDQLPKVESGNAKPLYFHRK
Text: The activity of the compounds of the present invention regarding mineralocorticoid receptor antagonism can be evaluated using the following assay.
Assessment of MR Potency in HMR NH Pro Assay
The human MR NH Pro assay is a commercially available PathHunter™ Protein:Protein interaction assay (DiscoveRx; http://www.discoverx.com/nhrs/prod-nhrs.php) that measures the ability of compounds to antagonize full-length human Mineralocorticoid Receptor (MR) binding to a coactivator peptide.
Stock solution was prepared at 10 μM in DMSO and stored at −20° C. for assay, dilute in assay media to 1.8 or 6 nM (6× of final concentration=about 0.3 nM to about 1.0 nM)
5. Cell line: PathHunter CHO-K1 MR cells Cat #93-0456C2, Lot No: 09B0913, from operation liquid nitrogen stock.
6. Control Antagonist: Spironolactone: Sigma #S-3378 and Eplerenone Sigma #107724-20-9 (10 mM stock concentration also prepared in DMSO and stored at −20° C.).
1. Cells are grown in F12+FBS+Hygromycin+pen/strep+Genetin
2. Cells are collected with 0.05% trypsin and the cell suspension is spun and resuspended in a volume of F12+1.5% CD-FBS and counted.
3. The cells concentration was adjusted to 4×10^5 cells/mL.
4. Cells were (25 μL/well) added to the wells of a 384 well plate.
5. The plate was then incubated at 37° C. over night in a humidified incubator with 5% CO2.
6. Test compounds were titrated starting at 4.4 mM, 10-point titration in 1:3 dilution.
Protocol for 384 well plate format: 6 hr treatment:
1. 10K exponentially growing cells/well (25 μL) were resuspended in assay media and plated into each well using the Multidrop (Thermo Electron) (use white wall, clear bottom assay plates (Costar #3570) and incubated overnight at 37° C., 5% CO2.
2. 0.25 μL 120× test compound (final DMSO concentration should be <1%) was added to each well n=2, 10 point titrations starting at 36.7 μM final concentration.
4. 5 μL of assay media was added to all wells in column 23 and 24.
5. Cells were then incubated for 6 hrs at 37° C., 5% CO2.
6. 15 μL 3× DiscoveRx detection reagent was then added to each well.
7. Plates were incubated for 1 hour at room temperature in the dark.
8. Plates were read on Envision (PerkinElmer) luminesence plate reader and analyzed using ADA.

[3] = Liver microsome stability, rat; type: in vitro ADME; details: liver microsomes, read-out: Liver Microsome Stability (t1/2)
[4] = PK profile in rats; type: in vivo, rat; details: for clearance / half-life / bioavailability: rat, in vivo; for bioavailability: oral
[5] = Hepatocyte stability, human; type: in vitro ADME; details: human, hepatocytes; read-out: Hepatocyte Stability (t1/2)
[6] = Liver microsome stability, dog; type: in vitro ADME; details: liver microsomes, read-out: Liver Microsome Stability (t1/2)
[7] = Liver microsome stability, human; type: in vitro ADME; details: human, liver microsomes; read-out: Liver Microsome Stability (t1/2)
[8] = Hepatocyte stability, rat; type: in vitro ADME; details: hepatocytes, read-out: Hepatocyte Stability (t1/2)
[9] = Metabolic stability in liver microsome and hepatocytes of multiple animal species (overall statement); type: in vitro ADME
[10] = Liver microsome stability, rhesus monkey; type: in vitro ADME; details: liver microsomes, read-out: Liver Microsome Stability (t1/2)
[11] = Hepatocyte stability, rhesus monkey; type: in vitro ADME; details: hepatocytes, read-out: Hepatocyte Stability (t1/2)

CCC(c1ccc(C(F)(F)F)cc1)(C(C)O)n1ncc2c(NS(C)(=O)=O)cc(F)cc21 (single isomer, unassigned) [Compound 31, N-(6-fluoro-1-(2-hydroxy-3-(4-(trifluoromethyl)phenyl)pentan-3-yl)-1H-indazol-4-yl)methanesulfonamide]
half-life [1]: 1.22 h
IC50 [2]: 51 nM
half-life [3]: 3.9 h
PK profile in rats (in words) [4]: good PK profile
AUCN po [4]: 4.0 µM·kg·h/mg
clearance [4]: 8.4 mL/min/kg
half-life [4]: 5.2 h
bioavailability [4]: 92%
half-life [5]: 1.5 h
half-life [6]: 2.13 h
half-life [7]: 2.6 h
half-life [8]: > 1.5 h
metabolic stability in liver microsome and hepatocytes of multiple animal species (in words) [9]: excellent metabolic stability
half-life [10]: 1.12 h
half-life [11]: > 1.5 h

CC(O)C(CC(F)F)(c1ccc(C(F)(F)F)cc1)n1ncc2c(NS(C)(=O)=O)cccc21 (single isomer, unassigned) [Compound 37, N-(1-(1,1-difluoro-4-hydroxy-3-(4-(trifluoromethyl)phenyl)pentan-3-yl)-1H-indazol-4-yl)methanesulfonamide]
half-life [1]: 1.32 h
IC50 [2]: 66 nM
half-life [3]: 2.03 h
half-life [5]: > 1.5 h
half-life [6]: 0.967 h
half-life [7]: 1.43 h
half-life [8]: > 1.5 h
half-life [10]: 2.05 h
half-life [11]: > 1.5 h

CC(O)C(CC(F)F)(c1ccc(C(F)(F)F)cc1)n1ncc2c(NS(C)(=O)=O)cccc21 (single isomer, unassigned) [Compound 35, N-(1-(1,1-difluoro-4-hydroxy-3-(4-(trifluoromethyl)phenyl)pentan-3-yl)-1H-indazol-4-yl)methanesulfonamide]
IC50 [2]: 50 nM
PK profile in rats (in words) [4]: good PK profile
AUCN po [4]: 2.7 µM·kg·h/mg
clearance [4]: 14 mL/min/kg
half-life [4]: 7 h
bioavailability [4]: 98%
metabolic stability in liver microsome and hepatocytes of multiple animal species (in words) [9]: good metabolic stability

CCC(c1ccc(S(F)(F)(F)(F)F)cc1)(C(C)O)n1ncc2c(NS(C)(=O)=O)cccc21 (single isomer, unassigned) [Compound 22, N-(1-{2-hydroxy-3-[4-(pentafluoro-λ^6-sulfanyl)phenyl]pentan-3-yl}-1H-indazol-4-yl)methanesulfonamide]
IC50 [2]: 3810 nM

CS(=O)(=O)Nc1cccc2c1cnn2C(CO)(CC(F)F)c1ccc(C(F)(F)F)cc1 (single isomer, unassigned) [Compound 44, N-(1-(4,4-difluoro-l-hydroxy-2-(4-(trifluoromethyl)phenyl)butan-2-yl)-1H-indazol-4-yl)methanesulfonamide]
IC50 [2]: 539 nM

CCC(O)C(CC)(c1ccc(C(F)(F)F)cc1)n1ncc2c(NS(C)(=O)=O)cccc21 (single isomer, unassigned) [Compound 10, N-(1-(4-hydroxy-3-(4-(trifluoromethyl)phenyl)hexan-3-yl)-1H-indazol-4-yl)methanesulfonamide]
IC50 [2]: 5 nM

CCC(C(N)=O)(c1ccc(S(F)(F)(F)(F)F)cc1)n1ncc2c(NS(C)(=O)=O)cccc21 (racemic) [Compound 27, 2-{4-[(methylsulfonyl)amino]-1H-indazol-1-yl}-2-[4-(pentafluoro-λ^6-sulfanyl)phenyl]butanamide]
IC50 [2]: 3610 nM

CCC(c1ccc(S(F)(F)(F)(F)F)cc1)(C(C)O)n1ncc2c(NS(C)(=O)=O)cccc21 (single isomer, unassigned) [Compound 21, N-(1-{2-hydroxy-3-[4-(pentafluoro-λ^6-sulfanyl)phenyl]pentan-3-yl}-1H-indazol-4-yl)methanesulfonamide]
IC50 [2]: 333 nM

CCC(c1ccc(S(F)(F)(F)(F)F)cc1)(C(C)O)n1ncc2c(NS(C)(=O)=O)cccc21 (single isomer, unassigned) [Compound 24, N-(1-{2-hydroxy-3-[4-(pentafluoro-λ^6-sulfanyl)phenyl]pentan-3-yl}-1H-indazol-4-yl)methanesulfonamide]
IC50 [2]: 152 nM

CCC(O)C(CC)(c1ccc(C#N)cc1)n1ncc2c(NS(C)(=O)=O)cc(F)cc21 (single isomer, unassigned) [Compound 19]
IC50 [2]: 136 nM

CCS(=O)(=O)Nc1cccc2c1cnn2C(CC(F)F)(c1ccc(C(F)(F)F)cc1)C(C)O (single isomer, unassigned) [Compound 57, N-(1-(1,1-difluoro-4-hydroxy-3-(4-(trifluoromethyl)phenyl)pentan-3-yl)-1H-indazol-4-yl)ethanesulfonamide]
IC50 [2]: 43 nM

CCC(c1ccc(C(F)(F)F)cc1)(C(O)C(F)F)n1ncc2c(NS(=O)(=O)CC)cccc21 (single isomer, unassigned) [Compound 50, N-(1-(1,1-difluoro-2-hydroxy-3-(4-(trifluoromethyl)phenyl)pentan-3-yl)-1H-indazol-4-yl)ethanesulfonamide]
IC50 [2]: 4 nM

CCC(O)C(CC)(c1ccc(S(F)(F)(F)(F)F)cc1)n1ncc2c(NS(C)(=O)=O)cccc21 (single isomer, unassigned) [Compound 26, N-(1-{4-hydroxy-3-[4-(pentafluoro-λ^6-sulfanyl)phenyl]hexan-3-yl}-1H-indazol-4-yl)methanesulfonamide]
IC50 [2]: 1130 nM

CCC(O)C(CC)(c1ccc(Br)cc1)n1ncc2c(NS(C)(=O)=O)cccc21 (single isomer, unassigned) [Compound 8, N-(1-(3-(4-bromophenyl)-4-hydroxyhexan-3-yl)-1H-indazol-4-yl)methanesulfonamide]
IC50 [2]: 1190 nM

CCC(O)C(CC(F)F)(c1ccc(C(F)(F)F)cc1)n1ncc2c(NS(C)(=O)=O)cccc21 (single isomer, unassigned) [Compound 40, N-(1-(1,1-difluoro-4-hydroxy-3-(4-(trifluoromethyl)phenyl)hexan-3-yl)-1H-indazol-4-yl)methanesulfonamide]
IC50 [2]: 15 nM

CCC(O)C(CC)(c1ccc(C#N)cc1)n1ncc2c(NS(C)(=O)=O)cc(F)cc21 (single isomer, unassigned) [Compound 20, N-(1-(3-(4-cyanophenyl)-4-hydroxyhexan-3-yl)-6-fluoro-1H-indazol-4-yl)methanesulfonamide]
IC50 [2]: 138 nM

CCS(=O)(=O)Nc1cccc2c1cnn2C(CC(F)F)(c1ccc(C(F)(F)F)cc1)C(C)O (single isomer, unassigned) [Compound 58, N-(1-(1,1-difluoro-4-hydroxy-3-(4-(trifluoromethyl)phenyl)pentan-3-yl)-1H-indazol-4-yl)ethanesulfonamide]
IC50 [2]: 38 nM
